Patent publication US9695155B2, “Herbicidal substituted pyrimidinyloxy benzene compounds” (E. I. DU PONT DE NEMOURS AND COMPANY, priority 2013, dated 2017)

Experiments:
ducksalad = assay: Test C flooded paddy test; type: in vivo, Heteranthera limosa; details: Flood, scale 0 to 100 (0 no effect, 100 complete control), 13 to 15 days
Text: (§1) At time of treatment, test pots were flooded to 3 cm above the soil surface, treated by application of test compounds directly to the paddy water, and then maintained at that water depth for the duration of the test. Treated plants and controls were maintained in a greenhouse for 13 to 15 days, after which time all species were compared to controls and visually evaluated. […] A dash (-) response means no test result.

giant foxtail [1] = assay: Test A preemergence; type: in vivo, Setaria faberii
Procedure, shortened: (§2)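 Visual injury scored 0–100 (100 = complete control) against untreated controls about 10 days after treatment in a greenhouse. Test chemicals, formulated with surfactant in non-phytotoxic solvent, were sprayed on soil preemergence or on 2-10 cm, one- to two-leaf plants postemergence.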

barnyardgrass [2] = assay: Test B flooded paddy test; type: in vivo, Echinochloa crus-galli; details: Flood, 250 g ai/ha; 0 to 100 scale where 0 is no effect and 100 is complete control
Procedure, shortened: (§3)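 Post-emergence paddy-water application at the 2-leaf stage, with 3 cm flood kept for the whole test. Response was judged visually relative to controls after 13 to 15 greenhouse days, 0 indicating no effect and 100 complete control.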

giant foxtail [3] = assay: Test A postemergence; type: in vivo, Setaria faberii
Procedure, shortened: as §2

barnyardgrass [4] = assay: Test A preemergence; type: in vivo, Echinochloa crus-galli
Procedure, shortened: as §2

morningglory [5] = assay: Test A preemergence; type: in vivo, Ipomoea spp.
Procedure, shortened: as §2

Heteranthera limosa = assay: Test B flooded paddy test; type: in vivo; details: Flood, 250 g ai/ha; 0 to 100 scale where 0 is no effect and 100 is complete control
Procedure, shortened: as §3

velvetleaf [6] = assay: Test A preemergence; type: in vivo, Abutilon theophrasti
Procedure, shortened: as §2

corn [7] = assay: Test A preemergence; type: in vivo, Zea mays
Procedure, shortened: as §2

sedge, umbrella [8] = assay: Test B flooded paddy test; type: in vivo, Cyperus difformis; details: Flood, 250 g ai/ha; 0 to 100 scale where 0 is no effect and 100 is complete control
Procedure, shortened: as §3

velvetleaf [9] = assay: Test A postemergence; type: in vivo, Abutilon theophrasti
Procedure, shortened: as §2

large (Lg) crabgrass [10] = assay: Test A postemergence; type: in vivo, Digitaria sanguinalis
Procedure, shortened: as §2

pigweed [11] = assay: Test A preemergence; type: in vivo, Amaranthus retroflexus
Procedure, shortened: as §2

barnyardgrass [12] = assay: Test A postemergence; type: in vivo, Echinochloa crus-galli
Procedure, shortened: as §2

corn [13] = assay: Test A postemergence; type: in vivo, Zea mays
Procedure, shortened: as §2

rice [14] = assay: Test C flooded paddy test; type: in vivo, Oryza sativa; details: Flood, scale 0 to 100 (0 no effect, 100 complete control), 13 to 15 days
Text: as §1

wheat [15] = assay: Test A postemergence; type: in vivo, Triticum aestivum
Procedure, shortened: as §2

morningglory [16] = assay: Test A postemergence; type: in vivo, Ipomoea spp.
Procedure, shortened: as §2

pigweed [17] = assay: Test A postemergence; type: in vivo, Amaranthus retroflexus
Procedure, shortened: as §2

sedge, umbrella [18] = assay: Test C flooded paddy test; type: in vivo, Cyperus difformis; details: Flood, scale 0 to 100 (0 no effect, 100 complete control), 13 to 15 days
Text: as §1

barnyardgrass [19] = assay: Test C flooded paddy test; type: in vivo, Echinochloa crus-galli; details: Flood, scale 0 to 100 (0 no effect, 100 complete control), 13 to 15 days
Text: as §1

large (Lg) crabgrass [20] = assay: Test A preemergence; type: in vivo, Digitaria sanguinalis
Procedure, shortened: as §2

rice [21] = assay: Test B flooded paddy test; type: in vivo, Oryza sativa; details: Flood, 250 g ai/ha; 0 to 100 scale where 0 is no effect and 100 is complete control
Procedure, shortened: as §3

wheat [22] = assay: Test A preemergence; type: in vivo, Triticum aestivum
Procedure, shortened: as §2

[23] = 500 g ai/ha, 0 to 100 scale where 0 is no effect and 100 is complete control
[24] = 125 g ai/ha, 0 to 100 scale, 0 no effect, 100 complete control

C[Si](C)(C)C#Cc1cccc(Oc2ncc(Cl)cn2)c1-n1cc(Br)cn1 [Compound 293]
Plant response rating, Ducksalad (ducksalad; 31 g ai/ha): 30
Plant response rating, Ducksalad (ducksalad; 62 g ai/ha): 40
Plant response rating, Ducksalad (ducksalad; 125 g ai/ha): 75
Foxtail, Giant plant response rating (0 to 100 scale) (giant foxtail [1]; 125 g ai/ha): 20
Foxtail, Giant plant response rating (giant foxtail [1]; [23]): 90
Plant response rating, Barnyardgrass (barnyardgrass [2]): 0
Plant response rating, Foxtail, Giant (giant foxtail [3]; [24]): 20
Plant response rating, Foxtail, Giant (giant foxtail [3]; [23]): 30
Barnyardgrass plant response rating (0 to 100 scale, 0 is no effect, 100 is complete control) (barnyardgrass [4]; 125 g ai/ha): 0
Barnyardgrass plant response rating (barnyardgrass [4]; [23]): 10
Morningglory plant response rating (0 to 100 scale) (morningglory [5]; 125 g ai/ha): 0
Morningglory plant response rating (morningglory [5]; [23]): 0
Plant response rating, Ducksalad (Heteranthera limosa): 80
Velvetleaf plant response rating (0 to 100 scale) (velvetleaf [6]; 125 g ai/ha): 0
Velvetleaf plant response rating (velvetleaf [6]; [23]): 0
Corn plant response rating (0 to 100 scale) (corn [7]; 125 g ai/ha): 0
Corn plant response rating (corn [7]; [23]): 0
Plant response rating, Sedge, Umbrella (sedge, umbrella [8]): 80
Plant response rating, Velvetleaf (velvetleaf [9]; [24]): 60
Plant response rating, Velvetleaf (velvetleaf [9]; [23]): 80
Plant response rating, Crabgrass, Large (large (Lg) crabgrass [10]; [24]): 20
Plant response rating, Crabgrass, Large (large (Lg) crabgrass [10]; [23]): 30
Pigweed plant response rating (0 to 100 scale) (pigweed [11]; 125 g ai/ha): 20
Pigweed plant response rating (pigweed [11]; [23]): 80
Plant response rating, Barnyardgrass (barnyardgrass [12]; [24]): 10
Plant response rating, Barnyardgrass (barnyardgrass [12]; [23]): 10
Plant response rating, Corn (corn [13]; [24]): 0
Plant response rating, Corn (corn [13]; [23]): 20
Plant response rating, Rice (rice [14]; 31 g ai/ha): 0
Plant response rating, Rice (rice [14]; 62 g ai/ha): 0
Plant response rating, Rice (rice [14]; 125 g ai/ha): 0
Plant response rating, Wheat (wheat [15]; [24]): 0
Plant response rating, Wheat (wheat [15]; [23]): 0
Plant response rating, Morningglory (morningglory [16]; [24]): 10
Plant response rating, Morningglory (morningglory [16]; [23]): 30
Plant response rating, Pigweed (pigweed [17]; [24]): 60
Plant response rating, Pigweed (pigweed [17]; [23]): 90
Plant response rating, Sedge, Umbrella (sedge, umbrella [18]; 31 g ai/ha): 60
Plant response rating, Sedge, Umbrella (sedge, umbrella [18]; 62 g ai/ha): 75
Plant response rating, Sedge, Umbrella (sedge, umbrella [18]; 125 g ai/ha): 85
Plant response rating, Barnyardgrass (barnyardgrass [19]; 31 g ai/ha): 0
Plant response rating, Barnyardgrass (barnyardgrass [19]; 62 g ai/ha): 0
Plant response rating, Barnyardgrass (barnyardgrass [19]; 125 g ai/ha): 0
Crabgrass, Large plant response rating (0 to 100 scale) (large (Lg) crabgrass [20]; 125 g ai/ha): 40
Crabgrass, Large plant response rating (large (Lg) crabgrass [20]; [23]): 90
Plant response rating, Rice (rice [21]): 0
Wheat plant response rating (0 to 100 scale) (wheat [22]; 125 g ai/ha): 0
Wheat plant response rating (wheat [22]; [23]): 0
